{"source": "patent US9334212B2", "about": "“Compounds and compositions” (Colgate-Palmolive Company, priority 2010, dated 2016)", "format_in_all_cases": "cell-based", "key": {"[1]": {"test_system": "S. mutans", "test": "Minimum Inhibitory Concentration, oral pathogens", "conditions": "Streptococcus mutans, read-out: Minimum Inhibitory Concentration", "text": "(§1) Table 1 (below) describes the antibacterial efficacy of an exemplary compound of the present invention against common oral pathogens, A. viscosus and S. mutans."}, "[2]": {"test_system": "A. viscosus", "test": "Minimum Inhibitory Concentration, oral pathogens", "conditions": "Actinomyces viscosus, read-out: Minimum Inhibitory Concentration", "text": "as §1"}, "[3]": {"test_system": "S. aureus", "test": "Rapid Agar Plate Assay (RAPA)", "conditions": "for Log reduction in Bacterial Count: vs tap water washed plates", "method": "(§2) The compound of Formula (II) was mixed with a base bar soap chip and tested for any residual antibacterial activity against S. aureus and E. coli by a rapid agar plate assay (RAPA). Briefly, the method involves washing TSA plates with the soap samples for 10 seconds, lathering for another 40 seconds and finally rinsing for 10 seconds. After air drying for 30 minutes, 100 μL of freshly prepared bacterial suspension (density was adjusted to 0.1 OD at 620 nm) was applied on the treated plates and then plates were incubated at 37° C. for about 18 hours. TSA plates washed with normal tap water were used as negative control. Next day, bacterial colonies were counted and converted to log 10 and the log reductions as a result of washing with samples were calculated."}, "[4]": {"test_system": "E. coli", "test": "Rapid Agar Plate Assay (RAPA)", "conditions": "vs tap water washed plates", "method": "as §2"}, "[5]": {"test_system": "Escherichia coli (E. coli)", "test": "Zone of Inhibition Test (ZOI)", "conditions": "Example 4", "method": "(§3) The compound of Formula (II) was evaluated for its antibacterial efficacy against representative skin bacteria such as Staphylococcus aureus (S. aureus), Staphylococcus epidermidis (S. epidermidis), Corynebacterium minutissimum (C. minutissimum), Corynebacterium xerosis (C. xerosis) and Escherichia coli (E. coli). Zone of inhibition (ZOI), Minimum Inhibitory Concentration (MIC), and a Short Interval Kill Test (SIKT) were all performed, and the results are described in Tables 2-4 (below).\n(§4) The compound of Formula (II) was dissolved in polyethylene glycol (PEG 300), or in 100% ethanol at 0.5% concentration. 20 μL of each solution was placed on separate filter disks and air dried for 20 minutes. After 20 minutes of drying, the coated disks were placed in the bacterial lawn and plates were incubated at 37° C. for 18 hours, followed by measurement of ZOI.\n(§5) The antibacterial efficacy of the compound of Formula (II) was measured in comparison to triclosan, using various tests. The results are provided below in Tables 5 and 6."}, "[6]": {"test_system": "Staphylococcus epidermidis (S. epidermidis)", "test": "Minimum Inhibitory Concentration (MIC), skin bacteria", "conditions": "for MIC: Staphylococcus epidermidis, read-out: Minimum Inhibitory Concentration", "method": "as §3\n(§6) MIC against four common skin pathogens was evaluated for the compound of Formula (II), using the following method: A two-fold dilution of the compound of Formula (II) was prepared in a 96 well plate and a constant amount of bacteria added in each well. After 18-24 hours of incubation, bacterial growth was measured by using a Spectrophotometric Micro-plate Reader and the MIC values were determined."}, "[7]": {"test_system": "Corynebacterium xerosis (C. xerosis)", "test": "Minimum Inhibitory Concentration (MIC), skin bacteria", "conditions": "read-out: Minimum Inhibitory Concentration", "method": "as §3, §6"}, "[8]": {"test_system": "Corynebacterium minutissimum (C. minutissimum)", "test": "Zone of Inhibition Test (ZOI)", "method": "as §3\n(§7) 20 μL of each solution was placed on separate filter disks and air dried for 20 minutes. After 20 minutes of drying, the coated disks were placed in the bacterial lawn and plates were incubated at 37° C. for 18 hours, followed by measurement of ZOI.\nas §5"}, "[9]": {"test_system": "Staphylococcus aureus (S. aureus)", "test": "Zone of Inhibition Test (ZOI)", "method": "as §3, §7, §5"}, "[10]": {"test_system": "Corynebacterium minutissimum (C. minutissimum)", "test": "Minimum Inhibitory Concentration (MIC), skin bacteria", "conditions": "for MIC: Corynebacterium minutissimum, read-out: Minimum Inhibitory Concentration", "method": "as §3, §6, §5"}, "[11]": {"test_system": "Escherichia coli (E. coli)", "test": "Minimum Inhibitory Concentration (MIC), skin bacteria", "method": "as §3, §6, §5"}, "[12]": {"test_system": "Staphylococcus aureus (S. aureus)", "test": "Minimum Inhibitory Concentration (MIC), skin bacteria", "conditions": "for MIC: Staphylococcus aureus, read-out: Minimum Inhibitory Concentration", "method": "as §3, §6, §5"}, "[13]": {"test_system": "bacterial suspension", "test": "Short Interval Kill Test (SIKT)", "method": "SIKT determines the kill effect of the test article at a predetermined exposure time. […] Briefly, 1.2 mL of the compound of Formula (II)+PEG 300 was transferred into a sterile test tube, to which 0.2 mL of a freshly prepared bacterial suspension (OD adjusted to 0.1 at 620 nm) was added and gently mixed. The reaction was neutralized at the 1 minute or at the 5 minute point by adding a neutralizing broth. The reaction mixture was further diluted with letheen broth in 10-fold fashion and plated on MCA (Microbial Count Agar) plates for viable bacterial count."}, "[14]": {"test_system": "Staphylococcus epidermidis (S. epidermidis)", "test": "Zone of Inhibition Test (ZOI)", "conditions": "S. epiderm., 37° C. 18 hours", "method": "as §3, §4"}, "[15]": {"test_system": "Corynebacterium xerosis (C. xerosis)", "test": "Zone of Inhibition Test (ZOI)", "conditions": "37° C. 18 hours", "method": "as §3, §4"}, "[16]": {"conditions": "0.5% in EtOH, 20 μL on filter disk, 37° C. 18 hours"}, "[17]": {"conditions": "0.5% in PEG 300, 20 μL on filter disk, 37° C. 18 hours"}, "[18]": {"conditions": "0.5% in EtOH, 20 μL on filter disk"}, "[19]": {"conditions": "0.5% in PEG 300, 20 μL on filter disk"}}, "note": "Where two headings read alike, the source gives them in different places."}
{"smiles": "C=CCc1ccc(O)c(-c2cc(CC=C)ccc2O)c1", "note": "[Magnolol, magnolol]", "values": [{"measurement": "MIC", "setting": "[1]", "value": 32, "unit": "µg/mL"}, {"measurement": "MIC", "setting": "[2]", "value": 32, "unit": "µg/mL"}]}
{"smiles": "Oc1cc(Cl)ccc1Oc1ccc(Cl)cc1Cl", "note": "[Triclosan, 5-chloro-2-(2,4-dichlorophenoxy)phenol, reference compound]", "values": [{"measurement": "Log reduction in Bacterial Count", "setting": "[3]; 0.25% Triclosan bar", "value": 2.409, "unit": "log"}, {"measurement": "Log reduction in Bacterial Count", "setting": "[4]; 0.25% Triclosan bar", "value": 2.387, "unit": "log"}, {"measurement": "Zone of Inhibition", "setting": "[5]; 0.15%", "value": 40, "unit": "mm"}, {"measurement": "MIC", "setting": "[6]", "value": "< 2.44", "unit": "µg/mL"}, {"measurement": "MIC", "setting": "[7]", "value": 9.76, "unit": "µg/mL"}, {"measurement": "Zone of Inhibition", "setting": "[8]; 0.15%, Example 4", "value": 21, "unit": "mm"}, {"measurement": "Zone of Inhibition", "setting": "[9]; 0.15%, Example 4", "value": 50, "unit": "mm"}, {"measurement": "Minimum Inhibitory Concentration", "setting": "[10]; C. minutissimum, 0.15% active, Example 4", "value": 4.88, "unit": "ppm"}, {"measurement": "MIC", "setting": "[10]", "value": 4.88, "unit": "µg/mL"}, {"measurement": "MIC", "setting": "[11]; read-out: Minimum Inhibitory Concentration", "value": "< 2.44", "unit": "µg/mL"}, {"measurement": "Minimum Inhibitory Concentration", "setting": "[12]; S. aureus, 0.15% active, Example 4", "value": "<2.44", "unit": "ppm"}, {"measurement": "MIC", "setting": "[12]", "value": "< 2.44", "unit": "µg/mL"}, {"measurement": "MIC", "setting": "[1]", "value": "1 to 2", "unit": "µg/mL"}, {"measurement": "MIC", "setting": "[2]", "value": "1 to 2", "unit": "µg/mL"}]}
{"smiles": "O=C(Nc1ccc(Cl)cc1)Nc1ccc(Cl)c(Cl)c1", "note": "[TCC, reference compound]", "values": [{"measurement": "Log reduction in Bacterial Count", "setting": "[3]; 0.4% TCC bar", "value": 2.409, "unit": "log"}, {"measurement": "Log reduction in Bacterial Count", "setting": "[4]; 0.4% TCC bar", "value": 0.167, "unit": "log"}, {"measurement": "Short Interval Kill Test kill effect", "setting": "[13]; 0.5%, exposure time 1 minute", "value": 56.54}, {"measurement": "Short Interval Kill Test kill effect", "setting": "[13]; 0.5%, exposure time 5 minute", "value": 74.11}]}
{"smiles": "C=CCc1cc(Cl)c(O)c(-c2cc(CC=C)cc(Cl)c2O)c1", "note": "[Compound of Formula (II)]", "values": [{"measurement": "Log reduction in Bacterial Count", "setting": "[3]; 0.5% in soap chip", "value": 0.506, "unit": "log"}, {"measurement": "Log reduction in Bacterial Count", "setting": "[3]; 0.5% in soap chip, listed as compound of Formula (II)", "value": 0.5, "unit": "log"}, {"measurement": "reduction in the growth", "setting": "[3]; bar soap chip containing 0.5%", "value": "> 50", "unit": "%"}, {"measurement": "Log reduction in Bacterial Count", "setting": "[4]; 0.5% in soap chip", "value": 0.09, "unit": "log"}, {"measurement": "Zone of Inhibition", "setting": "[5]; 0.5%", "value": 0, "unit": "mm"}, {"measurement": "Minimum Inhibitory Concentration", "setting": "[6]; S. epiderm., + EtOH, 18-24 hours incubation", "value": 39, "unit": "ppm"}, {"measurement": "MIC", "setting": "[6]; S. epiderm., + PEG 300, 18-24 hours incubation", "value": 39, "unit": "µg/mL"}, {"measurement": "MIC", "setting": "[7]; C. xerosis, + EtOH, 18-24 hours incubation", "value": 156, "unit": "µg/mL"}, {"measurement": "MIC", "setting": "[7]; C. xerosis, + PEG 300, 18-24 hours incubation", "value": 78, "unit": "µg/mL"}, {"measurement": "Zone of Inhibition", "setting": "[8]; [16]", "value": 17, "unit": "mm"}, {"measurement": "Zone of Inhibition", "setting": "[8]; [17]", "value": 21, "unit": "mm"}, {"measurement": "Zone of Inhibition", "setting": "[8]; 0.5%, Example 4", "value": 22, "unit": "mm"}, {"measurement": "Zone of Inhibition", "setting": "[9]; [16]", "value": 13, "unit": "mm"}, {"measurement": "Zone of Inhibition", "setting": "[9]; [17]", "value": 15, "unit": "mm"}, {"measurement": "Zone of Inhibition", "setting": "[9]; 0.5%, Example 4", "value": 20, "unit": "mm"}, {"measurement": "MIC", "setting": "[10]; C. minutissimum, 0.5% active, Example 4", "value": 9.7, "unit": "µg/mL"}, {"measurement": "MIC", "setting": "[10]; C. minutissimum, + EtOH, 18-24 hours incubation", "value": 39, "unit": "µg/mL"}, {"measurement": "MIC", "setting": "[10]; C. minutissimum, + PEG 300, 18-24 hours incubation", "value": 9.77, "unit": "µg/mL"}, {"measurement": "MIC", "setting": "[11]; E. coli, 0.5% active, Example 4, read-out: Minimum Inhibitory Concentration", "value": 1250, "unit": "µg/mL"}, {"measurement": "MIC", "setting": "[12]; S. aureus, 0.5% active, Example 4", "value": 2.44, "unit": "µg/mL"}, {"measurement": "MIC", "setting": "[12]; S. aureus, + EtOH, 18-24 hours incubation", "value": 39, "unit": "µg/mL"}, {"measurement": "MIC", "setting": "[12]; S. aureus, + PEG 300, 18-24 hours incubation", "value": 19.5, "unit": "µg/mL"}, {"measurement": "Zone of Inhibition", "setting": "[14]; [18]", "value": 15, "unit": "mm"}, {"measurement": "Zone of Inhibition", "setting": "[14]; [19]", "value": 16, "unit": "mm"}, {"measurement": "Zone of Inhibition", "setting": "[15]; [18]", "value": 14, "unit": "mm"}, {"measurement": "Zone of Inhibition", "setting": "[15]; [19]", "value": 15, "unit": "mm"}, {"measurement": "Short Interval Kill Test kill effect", "setting": "[13]; 0.5% + PEG 300, exposure time 1 minute", "value": 65.18}, {"measurement": "Short Interval Kill Test kill effect", "setting": "[13]; 0.5% + PEG 300, exposure time 5 minute", "value": 87.37}, {"measurement": "MIC", "setting": "[1]; S. mutans", "value": "0.5 to 1", "unit": "µg/mL"}, {"measurement": "MIC", "setting": "[2]; A. viscosus", "value": "0.5 to 1", "unit": "µg/mL"}]}
